Measurements from ChEMBL document CHEMBL1781894, “Dibenzocyclooctadiene lignans with antineurodegenerative potential from Kadsura ananosma” (2011).

How the values were obtained:
SH-SY5Y [1] = experiment: Neuroprotective activity against H2O2-induced neurotoxicity in human SH-SY5Y cells assessed as cell survival at 10 uM incubated for 2 hrs before H2O2 challenge measured after 24 hrs by MTT assay; assay type: functional; settings: for viability at 10 µM: Homo sapiens, SH-SY5Y, read-out: Activity
SH-SY5Y [2] = experiment: Neuroprotective activity against H2O2-induced neurotoxicity in human SH-SY5Y cells assessed as cell survival at 1 uM incubated for 2 hrs before H2O2 challenge measured after 24 hrs by MTT assay; assay type: functional; settings: for viability at 1 µM: Homo sapiens, SH-SY5Y, read-out: Activity

| SMILES | viability at 10 µM (SH-SY5Y [1]) | viability at 1 µM (SH-SY5Y [2]) | Activity (SH-SY5Y [1]) | Activity (SH-SY5Y [2]) |
| --- | --- | --- | --- | --- |
| C/C=C(/C)C(=O)O[C@H]1c2cc(OC)c(OC)c(OC)c2-c2c(cc3c(c2OC)OCO3)[C@H](OC(C)=O)[C@H](C)[C@@H]1C [INTERIOTHERIN C] | 53.6% | 45.7% |  |  |
| C/C=C(/C)C(=O)O[C@H]1c2cc(OC)c(OC)c(OC)c2-c2c(cc3c(c2OC)OCO3)[C@H](OC(=O)C(C)C)[C@H](C)[C@@H]1C [ANANOLIGNAN M] | 64.5% | 74% |  |  |
| COc1cc2c(c(OC)c1OC)-c1c(cc3c(c1OC)OCO3)[C@H](OC(=O)C(C)C)[C@H](C)[C@H](C)[C@H]2OC(C)=O [ANANOLIGNAN H] | 63.9% | 64.1% |  |  |
| COc1cc2c(c(OC)c1OC)-c1c(cc3c(c1OC)OCO3)[C@H](O)[C@H](C)[C@H](C)[C@@H]2O [ANANOLIGNAN C] | 59.6% | 57.7% |  |  |
| CCCC(=O)O[C@H]1c2cc3c(c(OC)c2-c2c(cc(OC)c(OC)c2OC)[C@H](OC(C)=O)[C@@H](C)[C@H]1C)OCO3 [ANANOLIGNAN I] | 60.1% | 61.1% |  |  |
| C/C=C(\C)C(=O)O[C@H]1c2cc(OC)c(OC)c(OC)c2-c2c(cc3c(c2OC)OCO3)[C@H](OC(C)=O)[C@H](C)[C@@H]1C [ANANOLIGNAN L] | 66.9% | 79.2% |  |  |
| COc1cc2c(c(OC)c1OC)-c1c(cc3c(c1OC)OCO3)[C@H](OC(C)=O)[C@H](C)[C@H](C)[C@@H]2O [ANANOLIGNAN D] | 63% | 64.3% |  |  |
| COc1cc2c(c(OC)c1OC)-c1c(cc3c(c1OC)OCO3)[C@H](O)[C@H](C)[C@H](C)[C@H]2OC(C)=O [ANANOLIGNAN E] | 56.3% | 62% |  |  |
| COc1cc2c(c(OC)c1OC)-c1c(cc3c(c1OC)OCO3)[C@H](OC(C)=O)[C@H](C)[C@H](C)[C@H]2OC(C)=O [ANANOLIGNAN F] | 88.6% | 90% |  |  |
| COc1cc2c(c(OC)c1OC)-c1c(cc3c(c1OC)OCO3)[C@H](OC(=O)c1ccccc1)[C@H](C)[C@H](C)[C@H]2OC(C)=O [ANANOLIGNAN K] | 71.4% | 68.9% |  |  |
| C/C=C(\C)C(=O)O[C@H]1c2cc(OC)c(OC)c(OC)c2-c2c(cc3c(c2OC)OCO3)[C@H](O)[C@H](C)[C@@H]1C [ANANOSIN A] | 68.2% | 66.4% |  |  |
| COc1cc2c(c(OC)c1OC)-c1c(cc3c(c1OC)OCO3)[C@@H](OC(C)=O)[C@@H](C)[C@H](C)C2=O [ANANOLIGNAN B] | 69.6% | 59.7% |  |  |
| CCC(=O)O[C@H]1c2cc3c(c(OC)c2-c2c(cc(OC)c(OC)c2OC)[C@H](OC(C)=O)[C@@H](C)[C@H]1C)OCO3 [ANANOLIGNAN G] | 56.7% | 57.7% |  |  |
| COc1cc2c(c(OC)c1OC)-c1c(cc3c(c1OC)OCO3)[C@H](O)[C@H](C)[C@H](C)C2 [ISOGOMISIN O] | 56.7% | 56.9% |  |  |
| C/C=C(/C)C(=O)O[C@H]1c2cc(OC)c(OC)c(OC)c2-c2c(cc3c(c2OC)OCO3)[C@H](OC(=O)CCC)[C@H](C)[C@@H]1C [ANANOLIGNAN N] | 66.8% | 75% |  |  |
| CCC(C)C(=O)O[C@H]1c2cc3c(c(OC)c2-c2c(cc(OC)c(OC)c2OC)[C@H](OC(C)=O)[C@@H](C)[C@H]1C)OCO3 (stereo partly drawn) [ANANOLIGNAN J] | 55.1% | 52.2% |  |  |
| COc1cc2c(c(OC)c1OC)-c1c(cc3c(c1OC)OCO3)[C@H](O)[C@@H](C)[C@@H](C)C2 [YUNNANKADSURIN B] | 60.1% | 41.7% |  |  |
| COc1cc2c(c(OC)c1OC)-c1c(cc3c(c1OC)OCO3)[C@H](OC(C)=O)[C@H](C)[C@H](C)C2 (stereo in doubt; 16) [KADSURIN] |  |  | 49.7% | 56.3% |
| COc1cc2c(c(OC)c1OC)-c1c(cc3c(c1OC)OCO3)[C@H](OC(C)=O)[C@H](C)[C@H](C)C2 (stereo in doubt; 1) [KADSURIN] | 51.7% | 58.9% |  |  |
